Data from patent publication US8673313B2, “Cell penetrating peptides and its use fused to biomolecules with therapeutic action” (priority 2007, dated 2014).
Ends that are not written are not given here.

Tests used:
J774 cells [1] = assay: Fluorescence microscopy: internalization of the cargo protein E7 to the cell; assay type: cell-based; details: 1.66 μM protein, J774, 37° C., 30 min, 1 hour and 2 hours, FIG. 4
Procedure: Cells J774 grown on sterile glass cover slips of 22 mm overnight at 37° C. and 5% of CO2 with RPMI 1640, 10% inactivated calf fetal serum and 2 mM de glutamine. Then, different glass cover slips incubated with 1.66 μM fusion protein LALF-E7, 1.66 μM of protein E7 and PBS (as negative control) a 37° C. per 30 min, 1 hour and 2 hours. CasKi cells (human cells expressing HPV 16) grown as positive control in the same experimental conditions.
After incubation the cells were washed briefly with PBS and fix cells by 4% paraformaldehide per 20 min at room temperature. Wash in three changes of PBS. The permeabilization of the cells was with 0.5% Tritón X-100 for 15 min a room temperature. Wash in three changes of PBS. Then, the cells were incubating for 1 hour in 1% blocking SFB in PBS at room temperature. Wash in three changes of PBS. Cells were incubated with goat IgG anti E7/HPV 16 polyclonal antibody (Santa Cruz) diluted in PBS 1:50. Wash extensively with PBS. Incubate with anti-goat-fluorescein IgG polyclonal antibody (Santa Cruz) diluted in PBS 1:50 for 45 minutes in a dark chamber. Wash extensively with PBS. Mount cover slip with aqueous mounting medium. Examine using a fluorescence microscope with appropriate filters.

J774 cells [2] = assay: Western blot: internalization of the cargo protein E7 to the cell; assay type: cell-based; details: 25 μM protein, J774, 4 hours at 37° C., FIG. 5
Procedure: The cells J774 grown overnight at 37° C. and 5% of CO2 with RPMI 1640, 10% inactivated calf fetal serum and 2 mM de glutamine. After that, the cell were aliquoted in tubes with 5×10^6 cells each and incubated with 25 μM of fusion protein LALF-E7, 25 μM of protein E7 and PBS during 4 hours at 37° C. The sedimentation of the cells was made by a centrifugation to 1000 rpm by 10 minutes. Wash pellet in three changes of PBS. Cells were ruptured in 100 μL of RIPA buffer (Promega) mixed in vortex per 10 second and 2 min in ice. The sedimentation of the broken cells was made by a centrifugation to 12000 rpm by 15 minutes. Protein concentration was determined to the cell extract and rum 10 μg of total protein in 15% polyacrilamide gel. Subsequently the gel was transferred to a nitrocellulose membrane. The membrane was incubated for 2 hours at room temperature with an IgG goat polyclonal antibody anti-E7 HPV 16 (Santa Cruz) diluted in PBS (1:100). Wash in three changes of PBS. Subsequently, the membrane was incubated for 45 minutes at room temperature and in a dark room with an anti-goat IgG peroxidase conjugate (Sigma) diluted in PBS (1:5000). Wash in three changes of PBS. Finally the ECL system from Amersham Pharmacia Biotech was used.

murine splenocytes = assay: Internalization of the analogues L-2 and L-20 to murine splenocytes (confocal microscopy); assay type: cell-based, mice C57BL/6; details: 0.8 mg biotinylated peptide (278-280 μM), 37° C., 10 min to 18 h, FIG. 2
Procedure: For the splenocytes isolation, the mice C57BL/6 were sacrificed by break-up of the cervical and the splenocytes were removed aseptically. The cellular suspensions of the animals by each group met in pool and they were homogenized smoothly. The splenocytes were washed and the erythrocytes were lysed with a solution of NH4C10.83%. After washing, the splenocytes are divided en different tubes with 20×10^6 of cells in 10 mL of fresh medium RPMI 1640 supplemented with 7% de fetal bovine serum. Each preparation was incubated with 0.8 mg of the biotinylated peptides L-2 (278 μM) y L-20 (280 μM) in different times: 10 min, 30 min, 1 h and 18 h. The incubations were at 37° C. and 5% de CO2. The cells on sterile glass cover slips were fixed, permeabilized and treated with propidium Iodide for to stain the nucleus and with streptavidine-fluorescein for detection of peptides inside the cells.

[3] = test system: cells with different histological origins (J774, CasKi, HeLa, TC-1, Hep2); assay: Internalization of CPP LALF or their analogues to cells with different histological origins (fluorescence microscopy); assay type: cell-based; details: 25 or 50 μM biotinylated peptide, 37° C., streptavidin-fluorescein, FIG. 1
Procedure: (§1) Different cellular lines were used in this realization (Table 1). Cells grown on sterile glass cover slips of 22 mm overnight at 37° C. and 5% of CO2 with RPMI 1640, 10% inactivated calf fetal serum and 2 mM de glutamine. Then, 25 or 50 μM de CPP LALF or their biotinylated analogues L-2 y L-20 added and incubated at 37° C. and 4° C. in different times (10 min, 20 min, 30 min, 1 h y 2 h). Wash briefly with PBS and fix cells by 4% paraformaldehide per 20 min at room temperature. Wash in three changes of PBS. The permeabilization of the cells was with 0.5% Tritón X-100 for 15 min a room temperature. Wash in three changes of PBS. The cells were incubating for 1 hour in 1% blocking SFB in PBS at room temperature. Wash in three changes of PBS. Incubate with 1:50000 in PBS streptavidin-fluorescein for 45 minutes in a dark chamber. Wash extensively with PBS. Mount cover slip with aqueous mounting medium. Examine using a fluorescence microscope with appropriate filters.
(§2) As a negative control were used not related biotinylated and cells without peptide.

J774 cells [4] = assay: Internalization of CPP LALF in J774 cells at 4° C. (fluorescence microscopy); assay type: cell-based; details: J774, 4° C., 10 min incubation, FIG. 1
Procedure: as §1, §2

J774 cells [5] = assay: Fluorescence microscopy: internalization of the cargo protein GFP to the cell; assay type: cell-based; details: FIG. 6
Text: The protein produced in E. coli from the recombinant fusion LALF-GFP (GFP-English, green fluorescence protein) was used to verify that the CPP LALF or its analogues could internalize the cargo protein. The GFP (GenBank Accession #U55762) was obtained using the polymerase chain reaction from plasmid pEGFP-N1 of Clontech using oligonucleotides with SEQ ID N0. 11 and 12. Both oligonucleotides have restricted sites used for cloning (HindIII-sense and BamHI-antisense).
For the construction of recombinant fragment, synthetic LALF and GFP gene obtained by PCR were inserted with the T4 ligase in the vector pM238, similar as in the example III. The recombinant clone is identified with the SEQ ID N0. 13 and 14.
With the recombinant and purified LALF-GFP protein was performed an similar experiment to the example V, but in this case the cells J774 incubated with LALF-GFP, LALF biotinilade, GFP and PBS.

Substance | internalization into splenocytes (murine splenocytes) | internalization into cells [3] | also measured
E7: recombinant protein E7 of HPV 16, unfused comparator [reference compound] |  |  | internalization of E7 (fluorescent cells, anti-E7 antibody) (J774 cells [1]): Negative results; detection of protein in cell extract by anti-E7 antibody (Western blot) (J774 cells [2]): not detected any recognition
L-20: analogous peptide of LALF 32-51 with alanine substitution in the position 20 (SEQ ID N0. 5) (HYRIKPTFRRLKWKYKGKFA; Artificial Sequence Description Analogue L-20) | internalized in a short times of incubation (30 min) |  | 
LALF: peptide corresponding to the region 32-51 of LALF protein (SEQ ID N0. 1) (HYRIKPTFRRLKWKYKGKFW; Artificial Sequence Description Synthetic Gen CPP LALF) | similar | internalized in different cell types and short incubation times (30 min) | internalization into cells (J774 cells [4]): internalized in the cells J774 with only 10 min of the incubation at 4 °C
L-12: analogous peptide of LALF 32-51 with alanine substitution in the position 12 (SEQ ID N0. 4) (HYRIKPTFRRLAWKYKGKFW; Artificial Sequence Description Analogue L-12) | similar | similar | 
LALF-biotinilado: biotinylated CPP LALF peptide used as comparator in the GFP experiment (HYRIKPTFRRLKWKYKGKFW; also: biotinylated, site not given here; UniProt P07086 32-51, looked up, fragment) |  |  | internalization of GFP (fluorescent cells) (J774 cells [5]): fluorescent cells
